{"source": "patent US20070134261A1", "about": "“Effectors of innate immunity” (priority 2001, published 2007)", "system": "human A549 epithelial cells", "assay": "Resgen Human cDNA arrays (PRHU03-S3) of A549 cells treated with peptide (Tables 21-26)", "conditions": "50 μg/ml, 4 h", "note": "Where “and” joins values, the source holds several entries; their conditions need not be identical. Identical values can stand only once."}
{"smiles": "CC[C@H](C)[C@H](N)C(=O)N[C@@H](CC(C)C)C(=O)N1CCC[C@H]1C(=O)N[C@@H](Cc1c[nH]c2ccccc12)C(=O)N[C@@H](CCCCN)C(=O)N[C@@H](Cc1c[nH]c2ccccc12)C(=O)N1CCC[C@H]1C(=O)N[C@@H](Cc1c[nH]c2ccccc12)C(=O)N[C@@H](Cc1c[nH]c2ccccc12)C(=O)N1CCC[C@H]1C(=O)N[C@@H](Cc1c[nH]c2ccccc12)C(=O)N[C@@H](CCCNC(=N)N)C(=O)N[C@@H](CCCNC(=N)N)C(N)=O", "note": "[SEQ ID NO: 2]", "values": [{"measurement": "Ratio Peptide:Unstimulated, catenin (cadherin-associated protein), delta 1", "setting": "AA025276", "value": 1.2}, {"measurement": "Ratio Peptide:Unstimulated, integrin, beta 3", "setting": "AA037229", "value": 2.7}, {"measurement": "Ratio Peptide:Unstimulated, Epstein-Barr virus induced polynucleotide 2", "setting": "AA037376", "value": 1.6}, {"measurement": "Ratio Peptide:Unstimulated, disintegrin and metalloproteinase domain 10", "setting": "AA043347", "value": 1.5}, {"measurement": "Ratio Peptide:Unstimulated, MAP kinase kinase kinase kinase 3", "setting": "AA043537", "value": 0.45}, {"measurement": "Ratio Peptide:Unstimulated, protein tyrosine phosphatase, receptor type, J", "setting": "AA045326", "value": 3.6}, {"measurement": "Ratio Peptide:Unstimulated, MAP kinase kinase kinase 12", "setting": "AA053674", "value": 0.20}, {"measurement": "Ratio Peptide:Unstimulated, integrin, alpha 7", "setting": "AA055979", "value": 0.57}, {"measurement": "Ratio Peptide:Unstimulated, leukocyte immunoglobulin-like receptor, subfamily B (with TM and ITIM domains), member 4", "setting": "AA076350", "value": 0.75}, {"measurement": "Ratio Peptide:Unstimulated, phospholipase A2 receptor 1", "setting": "AA086038", "value": 2.8}, {"measurement": "Ratio Peptide:Unstimulated, IL-8", "setting": "AA102526", "value": 3.6}, {"measurement": "Ratio Peptide:Unstimulated, cadherin 11, type 2, OB-cadherin (osteoblast)", "setting": "AA136983", "value": 0.23}, {"measurement": "Ratio Peptide:Unstimulated, TNF R superfamily, member 1B", "setting": "AA150416, listed as ID 2", "value": "18 and 17.09"}, {"measurement": "Ratio Peptide:Unstimulated, MAP kinase 9", "setting": "AA157286", "value": 0.57}, {"measurement": "Ratio Peptide:Unstimulated, macrophage stimulating 1 R", "setting": "AA173454", "value": 1.7}, {"measurement": "Ratio Peptide:Unstimulated, killer cell lectin-like receptor subfamily C, member 2", "setting": "AA190627", "value": 9.7}, {"measurement": "Ratio Peptide:Unstimulated, TNF R superfamily, member 11b", "setting": "AA194983, listed as ID 2", "value": "5.3 and 5.29"}, {"measurement": "Ratio Peptide:Unstimulated, disintegrin and metalloproteinase domain 8", "setting": "AA279188", "value": 3.1}, {"measurement": "Ratio Peptide:Unstimulated, BCL2-interacting killer (apoptosis-inducing)", "setting": "AA291323", "value": 1.9}, {"measurement": "Ratio Peptide:Unstimulated, disintegrin-like and metalloprotease with thrombosondin type 1 motif, 3", "setting": "AA398492", "value": 0.32}, {"measurement": "Ratio Peptide:Unstimulated, MAP kinase kinase kinase 4", "setting": "AA402447", "value": 0.37}, {"measurement": "Ratio Peptide:Unstimulated, prostaglandin E receptor 3 (subtype EP3)", "setting": "AA406362", "value": 4.1}, {"measurement": "Ratio Peptide:Unstimulated, MAP kinase kinase kinase kinase 4", "setting": "AA417711", "value": 0.96}, {"measurement": "Ratio Peptide:Unstimulated, MAP kinase 8 interacting protein 2", "setting": "AA418293", "value": 0.07}, {"measurement": "Ratio Peptide:Unstimulated, integrin, alpha 3 (antigen CD49C, alpha 3 subunit of VLA-3 receptor)", "setting": "AA424695", "value": 0.8}, {"measurement": "Ratio Peptide:Unstimulated, cadherin 3, type 1, P-cadherin (placental)", "setting": "AA425217", "value": 0.43}, {"measurement": "Ratio Peptide:Unstimulated, integrin, alpha E", "setting": "AA425451", "value": 180}, {"measurement": "Ratio Peptide:Unstimulated, formyl peptide receptor 1", "setting": "AA425767", "value": 3.1}, {"measurement": "Ratio Peptide:Unstimulated, MAP kinase kinase 2", "setting": "AA425826", "value": 1.20}, {"measurement": "Ratio Peptide:Unstimulated, cytokine inducible SH2-containing protein", "setting": "AA427521", "value": 33}, {"measurement": "Ratio Peptide:Unstimulated, integrin, beta 5", "setting": "AA434397", "value": 0.32}, {"measurement": "Ratio Peptide:Unstimulated, protein tyrosine phosphatase, non-receptor type 9", "setting": "AA434420", "value": 3.5}, {"measurement": "Ratio Peptide:Unstimulated, protein tyrosine phosphatase, non-receptor type 12", "setting": "AA446259", "value": 2.3}, {"measurement": "Ratio Peptide:Unstimulated, caspase 8, apoptosis-related cysteine protease", "setting": "AA448468", "value": 2.2}, {"measurement": "Ratio Peptide:Unstimulated, growth factor receptor-bound protein 2", "setting": "AA449831", "value": 2.2}, {"measurement": "Ratio Peptide:Unstimulated, endothelin receptor type A", "setting": "AA450009", "value": 12}, {"measurement": "Ratio Peptide:Unstimulated, integrin, alpha 1", "setting": "AA450324", "value": 0.41}, {"measurement": "Ratio Peptide:Unstimulated, Human proteinase activated R-2", "setting": "AA454652", "value": 6.1}, {"measurement": "Ratio Peptide:Unstimulated, IL-11 R alpha", "setting": "AA454657", "value": 2.4}, {"measurement": "Ratio Peptide:Unstimulated, CSF 3 R", "setting": "AA458507", "value": 1.9}, {"measurement": "Ratio Peptide:Unstimulated, integrin, alpha 10", "setting": "AA460959", "value": 0.33}, {"measurement": "Ratio Peptide:Unstimulated, MAP kinase kinase kinase 7", "setting": "AA460969", "value": 0.97}, {"measurement": "Ratio Peptide:Unstimulated, NK cell R", "setting": "AA463248", "value": 2.5}, {"measurement": "Ratio Peptide:Unstimulated, integrin, alpha 2 (CD49B, alpha 2 subunit of VLA-2 receptor)", "setting": "AA463257", "value": 0.9}, {"measurement": "Ratio Peptide:Unstimulated, IL-1 receptor, type I", "setting": "AA464526", "value": 0.34}, {"measurement": "Ratio Peptide:Unstimulated, protein tyrosine phosphatase, receptor type, E", "setting": "AA464542", "value": 0.23}, {"measurement": "Ratio Peptide:Unstimulated, protein tyrosine phosphatase, receptor type, N polypeptide 2", "setting": "AA464590", "value": 0.02}, {"measurement": "Ratio Peptide:Unstimulated, protein tyrosine phosphatase, receptor-type, Z polypeptide 1", "setting": "AA476461", "value": 0.63}, {"measurement": "Ratio Peptide:Unstimulated, intercellular adhesion molecule 3", "setting": "AA479188", "value": 0.12}, {"measurement": "Ratio Peptide:Unstimulated, protein tyrosine phosphatase, receptor type, C-associated protein", "setting": "AA481547", "value": 5.1}, {"measurement": "Ratio Peptide:Unstimulated, IL-18 receptor 1", "setting": "AA482489", "value": 0.50}, {"measurement": "Ratio Peptide:Unstimulated, vitamin D R", "setting": "AA485226", "value": 2.5}, {"measurement": "Ratio Peptide:Unstimulated, integrin, beta 4", "setting": "AA485668", "value": 0.8}, {"measurement": "Ratio Peptide:Unstimulated, IL-10 R beta", "setting": "AA486393, listed as ID 2", "value": "2.5 and 2.51"}, {"measurement": "Ratio Peptide:Unstimulated, calcium and integrin binding protein", "setting": "AA487575", "value": 2.8}, {"measurement": "Ratio Peptide:Unstimulated, TRAF and TNF receptor-associated protein", "setting": "AA488650", "value": 0.75}, {"measurement": "Ratio Peptide:Unstimulated, cytokine-inducible kinase", "setting": "AA489234", "value": 0.41}, {"measurement": "Ratio Peptide:Unstimulated, small inducible cytokine subfamily A (Cys—Cys), member 18", "setting": "AA495985", "value": 0.32}, {"measurement": "Ratio Peptide:Unstimulated, programmed cell death 8 (apoptosis-inducing factor)", "setting": "AA496348", "value": 1.07}, {"measurement": "Ratio Peptide:Unstimulated, melanoma adhesion molecule", "setting": "AA497002", "value": 7.9}, {"measurement": "Ratio Peptide:Unstimulated, TNF receptor-associated factor 3", "setting": "AA504259", "value": 0.15}, {"measurement": "Ratio Peptide:Unstimulated, apoptosis-related protein PNAS-1", "setting": "AA521316", "value": 2.2}, {"measurement": "Ratio Peptide:Unstimulated, complement component receptor 2", "setting": "AA521362", "value": 26}, {"measurement": "Ratio Peptide:Unstimulated, laminin R 1 (67 kD, ribosomal protein SA)", "setting": "AA629897", "value": 0.4}, {"measurement": "Ratio Peptide:Unstimulated, protein tyrosine phosphatase, receptor type, U", "setting": "AA644448", "value": 6.1}, {"measurement": "Ratio Peptide:Unstimulated, integrin, beta 3", "setting": "AA666269", "value": 2.6}, {"measurement": "Ratio Peptide:Unstimulated, regulator of G-protein signaling 5", "setting": "AA668470", "value": 0.27}, {"measurement": "Ratio Peptide:Unstimulated, T cell R delta locus", "setting": "AA670107", "value": 2.7}, {"measurement": "Ratio Peptide:Unstimulated, small inducible cytokine A3 (homologous to mouse Mip-1a)", "setting": "AA677522", "value": 1.79}, {"measurement": "Ratio Peptide:Unstimulated, protein tyrosine phosphatase, non-receptor type 13", "setting": "AA679180", "value": 1.7}, {"measurement": "Ratio Peptide:Unstimulated, protein tyrosine phosphatase, non-receptor type 3", "setting": "AA682684", "value": 1.0}, {"measurement": "Ratio Peptide:Unstimulated, v-SNARE R", "setting": "AA704511", "value": 11}, {"measurement": "Ratio Peptide:Unstimulated, adenosine A3 R", "setting": "AA863086", "value": 2.0}, {"measurement": "Ratio Peptide:Unstimulated, integrin, alpha 9", "setting": "AA865557", "value": 0.86}, {"measurement": "Ratio Peptide:Unstimulated, small inducible cytokine subfamily B (Cys-X-Cys), member 10", "setting": "AA878880", "value": 0.50}, {"measurement": "Ratio Peptide:Unstimulated, interleukin enhancer binding factor 2", "setting": "AA894687", "value": 1.3}, {"measurement": "Ratio Peptide:Unstimulated, IL-2 receptor, alpha", "setting": "AA903183", "value": 0.41}, {"measurement": "Ratio Peptide:Unstimulated, small inducible cytokine subfamily A (Cys—Cys), member 23", "setting": "AA916836", "value": 0.38}, {"measurement": "Ratio Peptide:Unstimulated, CD2", "setting": "AA927710, listed as ID 2", "value": "2.6 and 2.62"}, {"measurement": "Ratio Peptide:Unstimulated, prostaglandin E receptor 1 (subtype EP1)", "setting": "AA972293", "value": 7.2}, {"measurement": "Ratio Peptide:Unstimulated, IL-12 receptor, beta 2", "setting": "AA977194", "value": 0.67}, {"measurement": "Ratio Peptide:Unstimulated, protein tyrosine phosphatase, non-receptor type 11", "setting": "AA995560", "value": 2.9}, {"measurement": "Ratio Peptide:Unstimulated, integrin beta 4 binding protein", "setting": "AI017019", "value": 1.7}, {"measurement": "Ratio Peptide:Unstimulated, VIP R 2", "setting": "AI057229", "value": 3.1}, {"measurement": "Ratio Peptide:Unstimulated, orphan seven-transmembrane receptor, chemokine related", "setting": "AI131555", "value": 1.06}, {"measurement": "Ratio Peptide:Unstimulated, IL-1 R antagonist homolog 1", "setting": "AI167887, listed as ID 2", "value": "3086 and 3085.96"}, {"measurement": "Ratio Peptide:Unstimulated, MAP kinase 8 interacting protein 2", "setting": "AI202738", "value": 0.16}, {"measurement": "Ratio Peptide:Unstimulated, disintegrin and metalloproteinase domain 18", "setting": "AI205675", "value": 0.40}, {"measurement": "Ratio Peptide:Unstimulated, regulator of G-protein signaling 20", "setting": "AI264190", "value": 48}]}
